Source: ChEMBL document CHEMBL3044647, “Tests for Evaluating the Side Effects of Chlorothalonil (TPN) and Spinosad on the Parasitic Wasp (Aphidius colemani)” (J Pestic Sci, 2005)

Assays:
Aphidius colemani [1] = assay: Drug uptake in Aphidius colemani at 400 mg/l treated as dipping; type: ADME, organism-based; settings: in vivo, topical_or_ocular
[2] = Toxicity against Aphidius colemani assessed as mortality at 400 mg/l, po after 24 hr; type: organism-based; settings: in vivo
[3] = Contact toxicity against Aphidius colemani assessed as mortality at 400 mg/l after 24 hr; type: organism-based; settings: in vivo, other: contact
[4] = Contact toxicity against Aphidius colemani assessed as mortality at 400 mg/l after 24 hr relative to control; type: organism-based; settings: in vivo, other: contact
Aphidius colemani [5] = assay: Drug uptake in Aphidius colemani at 400 mg/l treated as spraying; type: ADME, organism-based; settings: in vivo, topical_or_ocular
[6] = Toxicity against Aphidius colemani assessed as mortality at 400 mg/l, po after 24 hr relative to control; type: organism-based; settings: in vivo
[7] = Residual toxicity against Aphidius colemani in strawberry leaf assessed as mortality at 50 mg/l leaves collected after 30 days of application measured after 48 hr relative to control; type: organism-based; settings: in vivo
[8] = Toxicity against Aphidius colemani in kidney bean leaf assessed as mortality at 83.3 mg/l treated as spraying after 48 hr relative to control; type: organism-based; settings: in vivo, other: spraying
[9] = Toxicity against Aphidius colemani in kidney bean leaf assessed as mortality at 1 mg/l treated as spraying after 24 hr relative to control; type: organism-based; settings: in vivo
[10] = Drug level in Fragaria x ananassa (strawberry) leaf at 50 mg/l leaves after 40 days; type: ADME; settings: read-out: Drug uptake
Leaf [11] = assay: Drug level in Phaseolus vulgaris (kidney bean) leaf assessed as deposition in leaf at 83.3 mg/l; type: ADME
Leaf [12] = assay: Drug level in Fragaria x ananassa (strawberry) leaf assessed as deposition in leaf at 100 mg/l; type: ADME
[13] = Residual toxicity against Aphidius colemani in strawberry leaf assessed as mortality at 50 mg/l leaves collected after 5 days of application measured after 24 hr relative to control; type: organism-based; settings: in vivo
Leaf [14] = assay: Drug level in Phaseolus vulgaris (kidney bean) leaf assessed as deposition in leaf at 1 mg/l; type: ADME
Leaf [15] = assay: Drug level in Cucumis sativus (cucumber) leaf assessed as deposition in leaf at 100 mg/l; type: ADME
[16] = Toxicity against Aphidius colemani in kidney bean leaf assessed as mortality at 5 mg/l treated as spraying after 24 hr relative to control; type: organism-based; settings: in vivo
[17] = Residual toxicity against Aphidius colemani in strawberry leaf assessed as mortality at 50 mg/l leaves collected after 20 days of application measured after 48 hr relative to control; type: organism-based; settings: in vivo
[18] = Residual toxicity against Aphidius colemani in strawberry leaf assessed as mortality at 50 mg/l leaves collected after 40 days of application measured after 48 hr relative to control; type: organism-based; settings: in vivo
[19] = Drug level in Fragaria x ananassa (strawberry) leaf at 50 mg/l leaves after 30 days; type: ADME; settings: read-out: Drug uptake
[20] = Residual toxicity against Aphidius colemani in strawberry leaf assessed as mortality at 50 mg/l leaves collected after 10 days of application measured after 48 hr relative to control; type: organism-based; settings: in vivo
[21] = Toxicity against Aphidius colemani in strawberry leaf assessed as mortality at 100 mg/l treated as spraying after 24 hr relative to control; type: organism-based; settings: in vivo
[22] = Residual toxicity against Aphidius colemani in strawberry leaf assessed as mortality at 50 mg/l leaves collected after 10 days of application measured after 24 hr relative to control; type: organism-based; settings: in vivo
[23] = Toxicity against Aphidius colemani assessed as mortality at 100 mg/l, po after 24 hr relative to control; type: organism-based; settings: in vivo
[24] = Toxicity against Aphidius colemani in kidney bean leaf assessed as mortality at 8.3 mg/l treated as spraying after 48 hr relative to control; type: organism-based; settings: in vivo
[25] = Toxicity against Aphidius colemani in kidney bean leaf assessed as mortality at 1 mg/l treated as spraying after 48 hr relative to control; type: organism-based; settings: in vivo
[26] = Toxicity against Aphidius colemani in cucumber leaf assessed as mortality at 10 mg/l treated as spraying after 24 hr relative to control; type: organism-based; settings: in vivo, other: spraying
Leaf [27] = assay: Drug level in Phaseolus vulgaris (kidney bean) leaf assessed as deposition in leaf at 0.8 mg/l; type: ADME
[28] = Residual toxicity against Aphidius colemani in strawberry leaf assessed as mortality at 50 mg/l leaves collected after 30 days of application measured after 24 hr relative to control; type: organism-based; settings: in vivo
[29] = Drug level in Fragaria x ananassa (strawberry) leaf at 50 mg/l leaves after 10 days; type: ADME; settings: read-out: Drug uptake
[30] = Toxicity against Aphidius colemani in cucumber leaf assessed as mortality at 20 mg/l treated as spraying after 48 hr relative to control; type: organism-based; settings: in vivo
[31] = Toxicity against Aphidius colemani in cucumber leaf assessed as mortality at 100 mg/l treated as spraying after 24 hr relative to control; type: organism-based; settings: in vivo, other: spraying
[32] = Toxicity against Aphidius colemani in cucumber leaf assessed as mortality at 5 mg/l treated as spraying after 24 hr relative to control; type: organism-based; settings: in vivo, other: spraying
[33] = Toxicity against Aphidius colemani in kidney bean leaf assessed as mortality at 100 mg/l treated as spraying after 24 hr relative to control; type: organism-based; settings: in vivo
[34] = Contact toxicity against Aphidius colemani assessed as mortality at 100 mg/l after 24 hr; type: organism-based; settings: in vivo, other: contact
[35] = Residual toxicity against Aphidius colemani in strawberry leaf assessed as mortality at 50 mg/l leaves collected after 5 days of application measured after 48 hr relative to control; type: organism-based; settings: in vivo
Leaf [36] = assay: Drug level in Phaseolus vulgaris (kidney bean) leaf assessed as deposition in leaf at 8.3 mg/l; type: ADME
Leaf [37] = assay: Drug level in Phaseolus vulgaris (kidney bean) leaf assessed as deposition in leaf at 5 mg/l; type: ADME
Aphidius colemani [38] = assay: Drug uptake in Aphidius colemani at 100 mg/l treated as spraying; type: ADME, organism-based; settings: in vivo, topical_or_ocular
Leaf [39] = assay: Drug level in Fragaria x ananassa (strawberry) leaf assessed as deposition in leaf at 1 mg/l; type: ADME
[40] = Residual toxicity against Aphidius colemani in strawberry leaf assessed as mortality at 50 mg/l leaves collected after 40 days of application measured after 24 hr relative to control; type: organism-based; settings: in vivo
[41] = Toxicity against Aphidius colemani in cucumber leaf assessed as mortality at 20 mg/l treated as spraying after 24 hr relative to control; type: organism-based; settings: in vivo, other: spraying
Leaf [42] = assay: Drug level in Fragaria x ananassa (strawberry) leaf assessed as deposition in leaf at 5 mg/l; type: ADME
[43] = Toxicity against Aphidius colemani in strawberry leaf assessed as mortality at 5 mg/l treated as spraying after 24 hr relative to control; type: organism-based; settings: in vivo, other: spraying
[44] = Toxicity against Aphidius colemani in kidney bean leaf assessed as mortality at 8.3 mg/l treated as spraying after 24 hr relative to control; type: organism-based; settings: in vivo
[45] = Toxicity against Aphidius colemani in cucumber leaf assessed as mortality at 100 mg/l treated as spraying after 48 hr relative to control; type: organism-based; settings: in vivo
[46] = Toxicity against Aphidius colemani in strawberry leaf assessed as mortality at 1 mg/l treated as spraying after 24 hr relative to control; type: organism-based; settings: in vivo, other: spraying
Leaf [47] = assay: Drug level in Phaseolus vulgaris (kidney bean) leaf assessed as deposition in leaf at 100 mg/l; type: ADME
[48] = Toxicity against Aphidius colemani in kidney bean leaf assessed as mortality at 0.8 mg/l treated as spraying after 24 hr relative to control; type: organism-based; settings: in vivo
[49] = Toxicity against Aphidius colemani in kidney bean leaf assessed as mortality at 5 mg/l treated as spraying after 48 hr relative to control; type: organism-based; settings: in vivo
[50] = Toxicity against Aphidius colemani in cucumber leaf assessed as mortality at 5 mg/l treated as spraying after 48 hr relative to control; type: organism-based; settings: in vivo
[51] = Toxicity against Aphidius colemani in strawberry leaf assessed as mortality at 5 mg/l treated as spraying after 48 hr relative to control; type: organism-based; settings: in vivo
Leaf [52] = assay: Drug level in Cucumis sativus (cucumber) leaf assessed as deposition in leaf at 5 mg/l; type: ADME
Leaf [53] = assay: Drug level in Cucumis sativus (cucumber) leaf assessed as deposition in leaf at 10 mg/l; type: ADME
[54] = Drug level in Fragaria x ananassa (strawberry) leaf at 50 mg/l leaves after 5 days; type: ADME; settings: read-out: Drug uptake
[55] = Toxicity against Aphidius colemani in cucumber leaf assessed as mortality at 10 mg/l treated as spraying after 48 hr relative to control; type: organism-based; settings: in vivo, other: spraying
[56] = Toxicity against Aphidius colemani in strawberry leaf assessed as mortality at 100 mg/l treated as spraying after 48 hr relative to control; type: organism-based; settings: in vivo
[57] = Toxicity against Aphidius colemani assessed as mortality at 100 mg/l, po after 24 hr; type: organism-based; settings: in vivo
[58] = Drug level in Fragaria x ananassa (strawberry) leaf at 50 mg/l leaves after 20 days; type: ADME; settings: read-out: Drug uptake
[59] = Toxicity against Aphidius colemani in kidney bean leaf assessed as mortality at 83.3 mg/l treated as spraying after 24 hr relative to control; type: organism-based; settings: in vivo, other: spraying
[60] = Residual toxicity against Aphidius colemani in strawberry leaf assessed as mortality at 50 mg/l leaves collected after 20 days of application measured after 24 hr relative to control; type: organism-based; settings: in vivo
[61] = Toxicity against Aphidius colemani in strawberry leaf assessed as mortality at 1 mg/l treated as spraying after 48 hr relative to control; type: organism-based; settings: in vivo, other: spraying
Leaf [62] = assay: Drug level in Cucumis sativus (cucumber) leaf assessed as deposition in leaf at 20 mg/l; type: ADME
[63] = Toxicity against Aphidius colemani in kidney bean leaf assessed as mortality at 100 mg/l treated as spraying after 48 hr relative to control; type: organism-based; settings: in vivo, other: spraying
[64] = Contact toxicity against Aphidius colemani assessed as mortality at 100 mg/l after 24 hr relative to control; type: organism-based; settings: in vivo, other: contact
[65] = Toxicity against Aphidius colemani in kidney bean leaf assessed as mortality at 0.8 mg/l treated as spraying after 48 hr relative to control; type: organism-based; settings: in vivo, other: spraying

## N#Cc1c(Cl)c(Cl)c(Cl)c(C#N)c1Cl [CHLOROTHALONIL]
Aphidius colemani [1]
  Drug uptake: 5.5 ng
[2]
  mortality at 24 h: 0%
[3]
  mortality at 24 h: 30%
[4]
  mortality at 24 h: 8.7%
Aphidius colemani [5]
  Drug uptake: 25.1 ng
[6]
  mortality at 24 h: 0%

## CC[C@H]1CCC[C@H](O[C@H]2CC[C@H](N(C)C)[C@@H](C)O2)[C@@H](C)C(=O)C2=C[C@@H]3[C@@H](C=C(C)[C@@H]4C[C@@H](O[C@@H]5O[C@@H](C)[C@H](OC)[C@@H](OC)[C@H]5OC)C[C@@H]34)[C@@H]2CC(=O)O1.CC[C@H]1CCC[C@H](O[C@H]2CC[C@H](N(C)C)[C@@H](C)O2)[C@@H](C)C(=O)C2=C[C@@H]3[C@@H](C=C[C@@H]4C[C@@H](O[C@@H]5O[C@@H](C)[C@H](OC)[C@@H](OC)[C@H]5OC)C[C@@H]34)[C@@H]2CC(=O)O1
[7]
  mortality at 48 h: 0%
[8]
  mortality at 48 h: 100%
[9]
  mortality at 24 h: 0%
[10]
  concentration at 960 h: 9200 ng/g
Leaf [11]
  Drug uptake: 2.108%
Leaf [12]
  Drug uptake: 1.145%
[13]
  mortality at 24 h: 74.4%
Leaf [14]
  Drug uptake: 0.004%
Leaf [15]
  Drug uptake: 0.93%
[16]
  mortality at 24 h: 4%
[17]
  mortality at 48 h: 55.9%
[18]
  mortality at 48 h: 0%
[19]
  concentration at 720 h: 11400 ng/g
[20]
  mortality at 48 h: 93.6%
[21]
  mortality at 24 h: 95.8%
[22]
  mortality at 24 h: 62%
[23]
  mortality at 24 h: 91.3%
[24]
  mortality at 48 h: 98.2%
[25]
  mortality at 48 h: 21.4%
[26]
  mortality at 24 h: 3.3%
Leaf [27]
  Drug uptake: 0.023%
[28]
  mortality at 24 h: 4.3%
[29]
  concentration at 240 h: 28800 ng/g
[30]
  mortality at 48 h: 86.7%
[31]
  mortality at 24 h: 100%
[32]
  mortality at 24 h: 3.3%
[33]
  mortality at 24 h: 90%
[34]
  mortality at 24 h: 100%
[35]
  mortality at 48 h: 95.1%
Leaf [36]
  Drug uptake: 0.219%
Leaf [37]
  Drug uptake: 0.025%
Aphidius colemani [38]
  Drug uptake: 3.63 ng
Leaf [39]
  Drug uptake: 0.003%
[40]
  mortality at 24 h: 4%
[41]
  mortality at 24 h: 48.3%
Leaf [42]
  Drug uptake: 0.022%
[43]
  mortality at 24 h: 3.3%
[44]
  mortality at 24 h: 90%
[45]
  mortality at 48 h: 100%
[46]
  mortality at 24 h: 0%
Leaf [47]
  Drug uptake: 2.37%
[48]
  mortality at 24 h: 0%
[49]
  mortality at 48 h: 0%
[50]
  mortality at 48 h: 0%
[51]
  mortality at 48 h: 17.2%
Leaf [52]
  Drug uptake: 0.022%
Leaf [53]
  Drug uptake: 0.044%
[54]
  concentration at 120 h: 38800 ng/g
[55]
  mortality at 48 h: 10%
[56]
  mortality at 48 h: 100%
[57]
  mortality at 24 h: 93.3%
[58]
  concentration at 480 h: 23000 ng/g
[59]
  mortality at 24 h: 96.9%
[60]
  mortality at 24 h: 27.7%
[61]
  mortality at 48 h: 0%
Leaf [62]
  Drug uptake: 0.177%
[63]
  mortality at 48 h: 97.8%
[64]
  mortality at 24 h: 100%
[65]
  mortality at 48 h: 8.9%
